Experimental findings from PMC8977229 (Journal of molecular biology, 2022) are described below.

The structures appear in SMILES notation.

The assay addresses T1, FraR (Salmonella enterica, UniProt Q8ZLC9).
T1 sequence (Q8ZLC9 1-239): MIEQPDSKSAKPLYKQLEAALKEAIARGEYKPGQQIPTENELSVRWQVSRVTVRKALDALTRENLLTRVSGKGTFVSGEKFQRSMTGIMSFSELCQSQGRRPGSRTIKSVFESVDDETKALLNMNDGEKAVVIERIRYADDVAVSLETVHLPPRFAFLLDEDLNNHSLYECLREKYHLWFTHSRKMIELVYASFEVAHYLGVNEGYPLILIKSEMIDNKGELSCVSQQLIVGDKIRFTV
Description: online buffer exchange native MS titration. The class given is binding.

In general, Kd refers to the concentration at which binding is half-saturated. The low end stands for tighter binding, the high end for weaker binding.

`O=C(O)C[C@H](NCC(=O)[C@@H](O)[C@H](O)[C@H](O)COP(=O)(O)O)C(=O)O` [6-P-F-Asp, 6-phosphofructose-aspartate] had a Kd of 3.8 ± 0.6 µM.
